# Laboratory results reported in patent US4512986A, “Progrestationally active steroids” (priority 1983, dated 1985).
# Read-outs that look alike come from different tables or passages of the source.
# Key:
# [1] = target: T1, Cytosol Progesterone Receptor of the Estrogen-primed Immature Rabbit Uterus (Oryctolagus cuniculus, UniProt P06186); assay: Relative binding affinity for progesterone receptor (competition with 3H-progesterone); parameters: species or system rabbit (New Zealand White); conditions: 16-18 hour incubation, progesterone = 100
# T1 construct: cytosol progesterone receptor of the estrogen-primed immature rabbit uterus; tissue Dutchland Laboratories, Inc., Denver, Pa (animals); host or cells: uterus cytosol of estradiol-treated immature female New Zealand White rabbits
# T1 sequence (P06186 1-930): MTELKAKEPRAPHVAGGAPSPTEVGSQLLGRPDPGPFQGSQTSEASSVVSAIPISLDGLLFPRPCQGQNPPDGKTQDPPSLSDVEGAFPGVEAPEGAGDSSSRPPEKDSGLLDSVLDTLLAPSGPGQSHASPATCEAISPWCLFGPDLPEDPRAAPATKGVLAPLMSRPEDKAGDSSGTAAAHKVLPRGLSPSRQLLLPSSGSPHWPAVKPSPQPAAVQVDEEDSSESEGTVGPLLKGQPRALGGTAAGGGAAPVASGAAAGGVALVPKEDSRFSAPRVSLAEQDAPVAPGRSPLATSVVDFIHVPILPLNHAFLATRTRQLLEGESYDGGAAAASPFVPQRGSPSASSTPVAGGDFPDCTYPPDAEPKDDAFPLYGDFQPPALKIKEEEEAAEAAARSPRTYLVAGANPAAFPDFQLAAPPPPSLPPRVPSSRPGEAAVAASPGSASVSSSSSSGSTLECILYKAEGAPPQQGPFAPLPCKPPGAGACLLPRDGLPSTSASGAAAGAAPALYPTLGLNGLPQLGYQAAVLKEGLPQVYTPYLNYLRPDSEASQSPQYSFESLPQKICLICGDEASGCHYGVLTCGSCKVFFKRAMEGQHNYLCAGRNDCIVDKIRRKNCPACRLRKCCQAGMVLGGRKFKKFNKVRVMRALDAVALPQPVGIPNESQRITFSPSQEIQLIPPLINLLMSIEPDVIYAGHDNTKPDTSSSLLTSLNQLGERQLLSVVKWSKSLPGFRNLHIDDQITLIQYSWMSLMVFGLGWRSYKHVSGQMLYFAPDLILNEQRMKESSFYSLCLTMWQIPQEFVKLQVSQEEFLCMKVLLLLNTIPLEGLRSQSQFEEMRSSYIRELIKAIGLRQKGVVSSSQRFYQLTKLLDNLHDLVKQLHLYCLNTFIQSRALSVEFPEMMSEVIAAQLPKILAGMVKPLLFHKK
# Protocol: RBA values recorded at 0° C. after short incubation times (e.g., 2 hr) mainly reflect differences in the association rate constants of the competing ligands, whereas those measured after long incubation times (e.g., 16 to 24 hr) and/or higher temperatures predominantly are influenced by differences in the dissociation rate constants of the competing ligands. RBA's determined after short incubation times primarily reflect the association of the competitor compared to the natural hormone. Conversely, RBA's measured after long incubation times reflect the dissociation rate of the competitor compared to the natural hormone.
# The assay components are combined, allowed to equilibrate, and unbound radioactivity removed by charcoal adsorption.
# Animal species. Immature female New Zealand White rabbits weighing 0.8 to 1.0 kg (Dutchland Laboratories, Inc., Denver, Pa).
# Pretreatment. Subcutaneous treatment with 15 μg 17β-estradiol/0.6 ml sesame oil each morning (0830 to 0930 hr) for three days. Animals sacrificed 24 hr after final injection.
# Tissue. Uterus; each uterus weighed about 1.0 g and two or three uteri were pooled for each assay.
# Buffer. (A) 0.01M TES, pH 7.4, 1 mM EDTA, 0.012M thioglycerol and 30% glycerol for cytosol preparation and ^3 H-steroid, unlabeled hormone and compound solutions. (B) 0.01M TES, pH 7.4, 1 mM EDTA and 0.012M thioglycerol for charcoal solution.
# Homogenization. Five or six 5-second bursts with 30 second cooling periods between bursts using Brinkman Polytron Pt. 10 at 3.5 rheostat setting.
# Temperature. 0°-4° C. for all steps.
# Centrifugation. 45,000 rpm for 1 hr, 50 Ti rotor, Beckman L8-80 ultracentrifuge.
# Incubation. 16-18 hr at 4°-6° C.
# Concentations. 1×10^-10 M to 1×10^-5 M (7 concentrations).
# Method. Charcoal adsorption method used to remove unbound radioactivity. Five-tenths ml of dextran-coated charcoal (0.5% Norit A and 0.05% dextran T-70) added to all tubes except total radioactivity tubes (0.5 ml buffer [B] added), tubes vortexed 3-5 sec, allowed to sit for 10 minutes and centrifuged 10 minutes at 2000 rpm in Beckman TJ-6 centrifuge at 0°-4° C.
# Data Interpretation. […] The relative binding affinity (RBA) of each compound was calculated by using the following equation. [formula] where
# [2] = test system: uterine endometrium of estrone-primed immature rabbits; assay: Clauberg assay (progestational activity, McPhail); assay type: in vivo, rabbit (New Zealand White); conditions: oral; for McPhail Index (0-4) (X ± S.D.): 0 none, 4 maximal
# [3] = test system: estrogen-primed immature rabbits; conditions: cited from earlier work
# [4] = test system: endometrium of estrogen-primed ovariectomized or climacteric women; conditions: oral; cited from earlier work
# [5] = general knowledge; cited from earlier work
# [6] = test system: androgen target organs of castrate immature male rats; assay: Anti-androgenic activity in the castrate immature rat assay; assay type: in vivo
# Protocol: The oral anti-androgenic activity of 6-methyl-6-dehydro-17α-ethynylprogesterone was evaluated in the castrate immature male rat assay [Lerner et al., Proc. Soc. […] The assay is briefly described in the footnotes to Table 11.
# *This assay employs castrate immature rats. For methods refer to Lerner,
# L. J., A. Bianchi and A. Borman, Proc. Soc.
# **Groups of rats (7/group) were given daily injections of 0.3 ml sesame
# oil (control) or compound (in 0.3 ml sesame oil) for 7 days. Some groups
# also concurrently received progestational compounds by the sc or oral
# route of administration in order to evaluate antiandrogenic activity. One
# day after the final doses, the animals were sacrificed and the androgen
# target organs indicated were weighed.
# ***Statistically significant (p < 0.05) lower organ weights versus the
# testosterone, sc, (400 μg/rat/day) group as determined by Analysis of
# Variance coupled with Duncan's Multiple Range Test.
# [7] = 100 μg/rabbit daily, listed as 6α-Methyl-17α-acetoxyprogesterone
# [8] = oral 25 μg/rat daily + testosterone sc 400
# [9] = oral 100 μg/rat daily + testosterone sc 400
# [10] = oral 400 μg/rat daily + testosterone sc 400
smiles,measurement,setting,value
"CC(=O)O[C@]1(C(C)=O)CC[C@H]2[C@@H]3C[C@H](C)C4=CC(=O)CC[C@]4(C)[C@H]3CC[C@@]21C [Medroxyprogesterone Acetate, 6α-Methyl-17α-acetoxyprogesterone, reference compound]",RBA,[1]; Assay 4,57%
same,RBA,[1]; Assay 5,133%
same,RBA,[1]; Assay 6,143%
same,Uterine Weight (X ± S.D.),[2]; 5 μg/rabbit daily,1.08 ± 0.01 g
same,McPhail Index (0-4) (X ± S.D.),[2]; 5 μg/rabbit daily,0.29 ± 0.06
same,Uterine Weight (X ± S.D.),[2]; 10 μg/rabbit daily,1.35 ± 0.34 g
same,McPhail Index (0-4) (X ± S.D.),[2]; 10 μg/rabbit daily,0.71 ± 0.06
same,Uterine Weight (X ± S.D.),[2]; 25 μg/rabbit daily,1.12 ± 0.19 g
same,McPhail Index (0-4) (X ± S.D.),[2]; 25 μg/rabbit daily,0.25 ± 0.10
same,Uterine Weight (X ± S.D.),[2]; 50 μg/rabbit daily,2.82 ± 0.92 g
same,McPhail Index (0-4) (X ± S.D.),[2]; 50 μg/rabbit daily,3.00 ± 0.83
same,Uterine Weight (X ± S.D.),[2]; 100 μg/rabbit daily,2.65 ± 0.35 g
same,McPhail Index (0-4) (X ± S.D.),[2]; 100 μg/rabbit daily,3.90 ± 0.13
same,McPhail Index (0-4) (X ± S.D.),[2]; [7],2.66 ± 1.10
same,Uterine Weight (X ± S.D.),[2]; [7],2.11 ± 1.28 g
same,Uterine Weight (X ± S.D.),[2]; 200 μg/rabbit daily,3.30 ± 0.41 g
same,McPhail Index (0-4) (X ± S.D.),[2]; 200 μg/rabbit daily,4.00 ± 0.00
same,Uterine Weight (X ± S.D.),[2]; 400 μg/rabbit daily,3.73 ± 0.61 g
same,McPhail Index (0-4) (X ± S.D.),[2]; 400 μg/rabbit daily,4.00 ± 0.00
same,"Threshold or effective dose, Clauberg Assay",[3]; oral,0.01-0.03 mg/animal
same,"Threshold or effective dose, Clauberg Assay",[3]; s.c. (i.m.),0.01-0.03 mg/animal
same,"Threshold or effective dose, Kaufman Assay",[4],40-70 mg/cycle
same,"oral progestational activity, in words",[5],potent orally active progestational compounds
"CC(=O)O[C@]1(C(C)=O)CC[C@H]2[C@@H]3C=C(C)C4=CC(=O)CC[C@]4(C)[C@H]3CC[C@@]21C [Megestrol Acetate, 6-Methyl-6-dehydro-17α-acetoxyprogesterone]",Levator Ani weight (X ± S.D.),[6]; [8],50 ± 8 mg
same,Seminal Vesicles weight (X ± S.D.),[6]; [8],125 ± 23 mg
same,Ventral Prostate weight (X ± S.D.),[6]; [8],42 ± 20 mg
same,Levator Ani weight (X ± S.D.),[6]; [9],55 ± 12 mg
same,Seminal Vesicles weight (X ± S.D.),[6]; [9],128 ± 36 mg
same,Ventral Prostate weight (X ± S.D.),[6]; [9],54 ± 13 mg
same,Levator Ani weight (X ± S.D.),[6]; [10],65 ± 12 mg
same,Seminal Vesicles weight (X ± S.D.),[6]; [10],120 ± 21 mg
same,Ventral Prostate weight (X ± S.D.),[6]; [10],48 ± 15 mg
same,"anti-androgenic activity, in words","[6]; with testosterone sc 400 μg/rat/day, doses up to 400 μg/rat/day (progestagen oral; progesterone sc)",significant anti-androgenic activity
same,"Threshold or effective dose, Clauberg Assay",[3]; oral,0.03 mg/animal
same,"Threshold or effective dose, Clauberg Assay",[3]; s.c. (i.m.),0.01-0.03 mg/animal
same,"Threshold or effective dose, Kaufman Assay",[4],35-50 mg/cycle
same,"oral progestational activity, in words",[5],potent orally active progestational compounds
C#C[C@]1(O)CC[C@H]2[C@@H]3CCC4=CC(=O)CC[C@@H]4[C@H]3CC[C@@]21C [Norethisterone],"Threshold or effective dose, Clauberg Assay",[3]; s.c. (i.m.),0.1 mg/animal
same,"Threshold or effective dose, Kaufman Assay",[4],100-150 mg/cycle
C#C[C@]1(O)CC[C@H]2[C@@H]3CCC4=C(CCC(=O)C4)[C@H]3CC[C@@]21C [Norethynodrel],"Threshold or effective dose, Clauberg Assay",[3]; oral,0.3 mg/animal
same,"Threshold or effective dose, Clauberg Assay",[3]; s.c. (i.m.),0.3 mg/animal
same,"Threshold or effective dose, Kaufman Assay",[4],150-200 mg/cycle
